From US20160108049A1 (TAKEDA Gmbh, priority 2011, published 2016) come the findings set out here.

For one test, the target named is T1, PDE4B1 (Homo sapiens, UniProt Q07343).
T1 construct: made in house; host or cells: SF21 insect cells (baculovirus; virus made in SF9 cells, pCR-Bac vector)
Description: Inhibition of PDE4 activity (PDE4B1, SPA assay). The format is biochemical. The settings on record: recombinant PDE4B1, 0.5 μM cAMP; read-out: PDE4B1 Inhibitory values measured as -logIC50 (converted). The method, then: Method for Measuring Inhibition of PDE4 Activity
The PDE4B1 (GB no. L20966) was a gift of Prof. M. Conti (Stanford University, USA). It was amplified from the original plasmid (pCMV5) via PCR with primers Rb18 (5′-[…]-3′) and Rb10 (5′-[…]-3′) and cloned into the pCR-Bac vector (Invitrogen, Groningen, NL).
The recombinant baculovirus was prepared by means of homologous recombination in SF9 insect cells. The expression plasmids were cotransfected with Baculo-Gold DNA (Pharmingen, Hamburg) using a standard protocol (Pharmingen, Hamburg). Wt virus-free recombinant virus supernatants were selected using plaque assay methods. After that, high-titre virus supernatants were prepared by amplifying 3 times. PDE4B1 was expressed in SF21 cells by infecting 2×10^6 cells/ml with an MOI (multiplicity of infection) between 1 and 10 in the serum-free SF900 medium (GIBCO Life Technologies, Karlsruhe, Germany) The cells were cultured at 28° C. for 48-72 hours, after which they were pelleted for 5-10 min at 1000×g and 4° C.
The SF21 insect cells were resuspended, at a concentration of approx. 10^7 cells/ml, in ice-cold (4° C.) homogenization buffer (20 mM Tris, pH 8.2, containing the following additions: 140 mM NaCl, 3.8 mM KCl, 1 mM EGTA, 1 mM MgCl2, 10 mM β-mercaptoethanol, 2 mM benzamidine, 0.4 mM Pefablock, 10 μM leupeptin, 10 μM pepstatin A, 5 μM trypsin inhibitor) and disrupted by ultrasonication. The homogenate was then centrifuged for 10 min at 1000×g and the supernatant was stored at −80° C. until subsequent use (see below). The protein content was determined by the Bradford method (BioRad, Munich) using BSA (Bovine serum albumin) as the standard.
PDE4B1 activities were measured in a 96-well platform using SPA (scintillation proximity assay) yttrium silicate beads (RPNQ1050 from GE Healthcare). In a first step the PDE activity operated hydrolysis of either [^3H] cAMP (substrate) into […]. In a second step substrate and product were distinguished following addition of SPA yttrium silicate beads. […] Close proximity of bound [^3H] […] The test volume was 100 μl and finally contained 20 mM Tris buffer (pH 7.4), 0.1 mg/ml of BSA, 5 mM Mg^2+, 0.5 μM cAMP (including about 50,000 cpm of [3H]cAMP) as substrate, 1 μl of the respective substance dilution in DMSO and sufficient recombinant PDE (1000×g supernatant, see above) to ensure that 10-20% of the cAMP was converted under the said experimental conditions. […] After a preincubation of 5 min at 37° C., the reaction was commenced by adding the substrate (cAMP) and the assays were incubated for a further 15 min. Reactions were terminated by adding SPA beads (50 μl). In agreement with the manufacturer's instructions, the SPA beads had previously been resuspended in water, but were then diluted 1:3 (v/v) in water. This diluted solution further contained 3 mM IBMX (isobutylmethylxanthine) to ensure a complete block of PDE activity. Once the beads were sedimented (>30 min), the MTP's (micro titerplate) were analyzed in commercially available […]. The corresponding IC50 values of the compounds for inhibition of PDE4B1 activity were determined from the concentration-effect curves by means of non-linear regression.
(§1) The numbers of the compounds correspond to the numbers of the examples.

The target of another test is T2, human PDE5 (Homo sapiens, UniProt O76074).
T2 construct: from tissue; host or cells: human platelets from fresh donor blood (platelet lysate)
Description: Inhibition of PDE5 activity (platelet lysate, SPA assay). Type of test: biochemical. The settings on record: 0.5 μM cGMP, read-out: PDE5 Inhibitory values measured as -logIC50 (converted). The method, then:
Method for Measuring Inhibition of PDE5 Activity
As a source for human PDE5, platelets were used. For that purpose, 150 ml fresh blood from human donors anticoagulated with citrate [final concentration 0.3% (w/v)] was centrifuged at 200 g for 10 min to obtain the so-called platelet-rich-plasma (PRP) as a supernatant. […] After centrifugation (1,400 g, 10 min) the cell pellet was resuspended in 3 ml homogenization buffer (NaCl 140 mM, KCl 3.8 mM, EGTA (ethylene glycol tetraacetic acid) 1 mM, MgCl2 1 mM, Tris-HCl 20 mM, beta-mercaptoethanol 1 mM, pH 8.2) plus protease-inhibitor mix resulting in final concentrations of 0.5 mM Pefablock (Roche), 10 μM Leupeptin, 5 μM Trypsine inhibitor, 2 mM Benzamidin and 10 μM Pepstatin A. The suspension was sonicated and thereafter centrifuged for 15 min at 10,000 g. The resulting supernatant (platelet lysate) was used for enzymatic assays.
PDE5 activities were measured in a 96-well platform using SPA (scintillation proximity assay) yttrium silicate beads (RPNQ1050 from GE Healthcare). In a first step the PDE activity operated hydrolysis of either [^3H] cGMP (substrate) into [^3H] 5′GMP. In a second step substrate and product were distinguished following addition of SPA yttrium silicate beads. Indeed, in the presence of zinc sulphate the linear [^3H] […] Close proximity of bound [^3H] […] The test volume was 100 μl and contained 20 mM Tris buffer (pH 7.4), 0.1 mg of BSA (bovine serum albumin)/ml, 5 mM Mg^2+, 1 μM motapizone (PDE3 Inhibitor), 10 nM PDE2 inhibitor 2-(3,4-dimethoxybenzyl)-7-[(1R,2R)-2-hydroxy-1-(2-phenylethyl)propyl]-5-methylimidazo[5,1-f][1,2,4]triazin-4(3H)-one, 0.5 μM cGMP (cyclic guanosine monophosphate) (including about 50,000 cpm of [3H]cGMP as a tracer) (substrate), 1 μl of the respective compound dilution in dimethylsulfoxide (DMSO) and sufficient PDE5-containing platelet lysat (10,000×g supernatant, see above) to ensure that 10-20% of the cGMP was converted under the said experimental conditions. […] After a preincubation of 5 min at 37° C., the reaction was commenced by adding the substrate (cGMP) and the assay was incubated for a further 15 min. The reaction was terminated by adding SPA beads (50 μl). In agreement with the manufacturer's instructions, the SPA beads had previously been resuspended in water, but were then diluted 1:3 (v/v) in water. This diluted solution also contained 3 mM 8-methoxymethyl-3-isobutyl-1-methylxanthine (IBMX) to ensure a complete block of PDE activity. Once the beads were sedimented (>30 min), the MTP's were analyzed in commercially available luminescence detection devices. The corresponding IC50 values of the compounds for inhibition of PDE activity were determined from the concentration-effect curves by means of non-linear regression.
as §1

T1 sequence (Q07343 whole entry): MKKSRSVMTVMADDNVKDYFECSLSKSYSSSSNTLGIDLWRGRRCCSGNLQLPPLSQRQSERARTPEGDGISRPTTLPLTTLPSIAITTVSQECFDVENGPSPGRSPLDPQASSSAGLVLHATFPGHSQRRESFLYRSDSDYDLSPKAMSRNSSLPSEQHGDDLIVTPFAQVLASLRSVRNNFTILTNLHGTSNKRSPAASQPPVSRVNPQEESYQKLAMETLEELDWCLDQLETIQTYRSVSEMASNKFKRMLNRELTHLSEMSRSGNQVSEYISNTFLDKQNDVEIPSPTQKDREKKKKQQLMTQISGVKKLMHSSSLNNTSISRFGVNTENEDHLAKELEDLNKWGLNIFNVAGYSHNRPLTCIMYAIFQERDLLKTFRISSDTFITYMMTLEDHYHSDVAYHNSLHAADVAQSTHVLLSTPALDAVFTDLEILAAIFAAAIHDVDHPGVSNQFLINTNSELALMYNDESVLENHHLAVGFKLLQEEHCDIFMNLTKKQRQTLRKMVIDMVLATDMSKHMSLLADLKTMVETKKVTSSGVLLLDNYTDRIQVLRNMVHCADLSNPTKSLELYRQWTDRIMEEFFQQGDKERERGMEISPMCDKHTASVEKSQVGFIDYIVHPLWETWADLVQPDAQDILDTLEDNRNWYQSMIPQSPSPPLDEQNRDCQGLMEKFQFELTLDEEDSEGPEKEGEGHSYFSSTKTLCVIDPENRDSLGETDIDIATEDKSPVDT

In the case of `COc1ccc(C2=NN(C3CCN(C(=O)[C@@H](Cc4cc(F)cc(F)c4)NC(=O)c4c[nH]c5c(-c6c(OCC7CC7)ccc7c6OCO7)ncnc45)CC3)C(=O)[C@@H]3CCCC[C@H]23)cc1OC` [Example 1, 4-[5-(cyclopropylmethoxy)-1,3-benzodioxol-4-yl]-N-[(2R)-3-(3,5-difluorophenyl)-1-{4-[(4aS,8aR)-4-(3,4-dimethoxyphenyl)-1-oxo-4a,5,6,7,8,8a-hexahydrophthalazin-2(1H)-yl]piperidin-1-yl}-1-oxopropan-2-yl]-5H-pyrrolo[3,2-d]pyrimidine-7-carboxamide], the IC50 at PDE4B1 is under 1 nM; on human PDE5, 1 to 10 nM. As for `COc1cc(OCC2CC2)c(-c2ncnc3c(C(=O)N[C@@H](Cc4cccc(C)c4)C(=O)N4CCC(N5N=C(c6ccc(OC)c(OC)c6)[C@H]6CCCC[C@H]6C5=O)CC4)c(C)[nH]c23)cc1F` [Example 2, 4-[2-(cyclopropylmethoxy)-5-fluoro-4-methoxyphenyl]-N-[(2S)-1-{4-[(4aS,8aR)-4-(3,4-dimethoxyphenyl)-1-oxo-4a,5,6,7,8,8a-hexahydrophthalazin-2(1H)-yl]piperidin-1-yl}-3-(3-methylphenyl)-1-oxopropan-2-yl]-6-methyl-5H-pyrrolo[3,2-d]pyrimidine-7-carboxamide], the IC50 on PDE4B1 and on human PDE5 was 1 to 10 nM throughout. With `COc1ccc(C2=NN(C3CCN(C(=O)[C@H](Cc4cccc(C)c4)NC(=O)c4c[nH]c5c(-c6c(OCC7CC7)ccc7c6OCO7)ncnc45)CC3)C(=O)[C@@H]3CCCC[C@H]23)cc1OC` [Example 3, 4-[5-(cyclopropylmethoxy)-1,3-benzodioxol-4-yl]-N-[(2S)-1-{4-[(4aS,8aR)-4-(3,4-dimethoxyphenyl)-1-oxo-4a,5,6,7,8,8a-hexahydrophthalazin-2(1H)-yl]piperidin-1-yl}-3-(3-methylphenyl)-1-oxopropan-2-yl]-5H-pyrrolo[3,2-d]pyrimidine-7-carboxamide], the IC50 at PDE4B1 was under 1 nM; at human PDE5, 1 to 10 nM. For `COc1ccc(C2=NN(C3CCN(C(=O)[C@H](Cc4cccc(C)c4)NC(=O)c4c(C)[nH]c5c(-c6c(OCC7CC7)ccc7c6OCO7)ncnc45)CC3)C(=O)[C@@H]3CCCC[C@H]23)cc1OC` [Example 4, 4-[5-(cyclopropylmethoxy)-1,3-benzodioxol-4-yl]-N-[(2S)-1-{4-[(4aS,8aR)-4-(3,4-dimethoxyphenyl)-1-oxo-4a,5,6,7,8,8a-hexahydrophthalazin-2(1H)-yl]piperidin-1-yl}-3-(3-methylphenyl)-1-oxopropan-2-yl]-6-methyl-5H-pyrrolo[3,2-d]pyrimidine-7-carboxamide] the same measures were 1 to 10 nM and 1 to 10 nM. On to `COc1cc(OCC2CC2)c(-c2ncnc3c(C(=O)N[C@H](Cc4ccc(C(C)(C)C)cc4)C(=O)N4CCC(N5N=C(c6ccc(OC)c(OC)c6)[C@H]6CCCC[C@H]6C5=O)CC4)c(C)[nH]c23)cc1F` [Example 5, N-[(2R)-3-(4-tert-butylphenyl)-1-{4-[(4aS,8aR)-4-(3,4-dimethoxyphenyl)-1-oxo-4a,5,6,7,8,8a-hexahydrophthalazin-2(1H)-yl]piperidin-1-yl}-1-oxopropan-2-yl]-4-[2-(cyclopropylmethoxy)-5-fluoro-4-methoxyphenyl]-6-methyl-5H-pyrrolo[3,2-d]pyrimidine-7-carboxamide], for which the IC50 at PDE4B1 and at human PDE5 was 1 to 10 nM in each case.

`COc1ccc(C2=NN(C3CCN(C(=O)[C@@H](Cc4ccc(C(C)(C)C)cc4)NC(=O)c4c[nH]c5c(-c6c(OCC7CC7)ccc7c6OCO7)ncnc45)CC3)C(=O)[C@@H]3CCCC[C@H]23)cc1OC` [Example 6, N-[(2R)-3-(4-tert-butylphenyl)-1-{4-[(4aS,8aR)-4-(3,4-dimethoxyphenyl)-1-oxo-4a,5,6,7,8,8a-hexahydrophthalazin-2(1H)-yl]piperidin-1-yl}-1-oxopropan-2-yl]-4-[5-(cyclopropylmethoxy)-1,3-benzodioxol-4-yl]-5H-pyrrolo[3,2-d]pyrimidine-7-carboxamide]: the IC50 on PDE4B1 and at human PDE5 was 1 to 10 nM in each case. Consider `COc1ccc(C2=NN(C3CCN(C(=O)[C@@H](Cc4ccc(C(N)=O)cc4)NC(=O)c4c[nH]c5c(-c6c(OCC7CC7)ccc7c6OCO7)ncnc45)CC3)C(=O)[C@@H]3CCCC[C@H]23)cc1OC` [Example 7, N-[(2R)-3-(4-carbamoylphenyl)-1-{4-[(4aS,8aR)-4-(3,4-dimethoxyphenyl)-1-oxo-4a,5,6,7,8,8a-hexahydrophthalazin-2(1H)-yl]piperidin-1-yl}-1-oxopropan-2-yl]-4-[5-(cyclopropylmethoxy)-1,3-benzodioxol-4-yl]-5H-pyrrolo[3,2-d]pyrimidine-7-carboxamide], for which the values for the IC50 on PDE4B1 and at human PDE5 were 1 to 10 nM and under 1 nM, respectively. Take `COc1ccc(C2=NN(C3CCN(C(=O)[C@H](Cc4cscn4)NC(=O)c4c(C)[nH]c5c(-c6c(OCC7CC7)ccc7c6OCO7)ncnc45)CC3)C(=O)[C@@H]3CCCC[C@H]23)cc1OC` [Example 87, 4-[5-(cyclopropylmethoxy)-1,3-benzodioxol-4-yl]-N-[(2S)-1-{4-[(4aS,8aR)-4-(3,4-dimethoxyphenyl)-1-oxo-4a,5,6,7,8,8a-hexahydrophthalazin-2(1H)-yl]piperidin-1-yl}-1-oxo-3-(1,3-thiazol-4-yl)propan-2-yl]-6-methyl-5H-pyrrolo[3,2-d]pyrimidine-7-carboxamide]: on human PDE5, the IC50 is under 1 nM.
